Assay results as given in ChEMBL document CHEMBL1806399, “Synthesis and SAR of new pyrazolo[4,3-h]quinazoline-3-carboxamide derivatives as potent and selective MPS1 kinase inhibitors” (Bioorg Med Chem Lett, 2011).
pIC50: −log10 of the molar value. Converted amounts (≈) assume the structure as drawn.

Tests used:
[1] = biological target: T1, Dual specificity protein kinase TTK (Homo sapiens, UniProt P33981); assay: Inhibition of MPS1 assessed as [33P]-gamma-ATP incorporation into substrate P38-betatide by gamma counting
T1 sequence (P33981 whole entry): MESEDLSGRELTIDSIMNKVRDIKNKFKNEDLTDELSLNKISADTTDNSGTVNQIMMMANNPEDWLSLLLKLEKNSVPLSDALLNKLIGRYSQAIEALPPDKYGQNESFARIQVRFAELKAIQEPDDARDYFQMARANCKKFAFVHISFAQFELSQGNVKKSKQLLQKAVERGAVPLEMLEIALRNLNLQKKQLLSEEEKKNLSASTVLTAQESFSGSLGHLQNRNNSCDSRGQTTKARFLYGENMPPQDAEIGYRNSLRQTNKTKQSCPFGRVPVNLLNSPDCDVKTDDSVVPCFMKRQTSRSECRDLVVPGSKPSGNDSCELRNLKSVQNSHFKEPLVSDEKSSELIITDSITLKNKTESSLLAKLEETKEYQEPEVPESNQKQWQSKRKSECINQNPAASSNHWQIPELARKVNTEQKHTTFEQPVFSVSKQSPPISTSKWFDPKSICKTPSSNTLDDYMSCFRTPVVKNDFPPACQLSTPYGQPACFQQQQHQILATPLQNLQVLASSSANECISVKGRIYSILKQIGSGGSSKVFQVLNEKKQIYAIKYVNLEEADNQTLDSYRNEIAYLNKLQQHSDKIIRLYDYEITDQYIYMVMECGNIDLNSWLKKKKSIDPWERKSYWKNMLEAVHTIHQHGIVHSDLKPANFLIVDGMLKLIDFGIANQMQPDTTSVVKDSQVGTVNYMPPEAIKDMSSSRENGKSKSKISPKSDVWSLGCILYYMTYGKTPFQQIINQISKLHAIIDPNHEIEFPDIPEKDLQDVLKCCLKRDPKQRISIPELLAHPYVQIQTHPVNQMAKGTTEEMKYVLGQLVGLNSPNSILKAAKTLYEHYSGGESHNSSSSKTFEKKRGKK

Aurora kinase A = biological target: T2, Aurora kinase A (Homo sapiens, UniProt O14965); assay: Inhibition of Aur-A assessed as [33P]-gamma-ATP incorporation into substrate by gamma counting
T2 sequence (O14965 whole entry): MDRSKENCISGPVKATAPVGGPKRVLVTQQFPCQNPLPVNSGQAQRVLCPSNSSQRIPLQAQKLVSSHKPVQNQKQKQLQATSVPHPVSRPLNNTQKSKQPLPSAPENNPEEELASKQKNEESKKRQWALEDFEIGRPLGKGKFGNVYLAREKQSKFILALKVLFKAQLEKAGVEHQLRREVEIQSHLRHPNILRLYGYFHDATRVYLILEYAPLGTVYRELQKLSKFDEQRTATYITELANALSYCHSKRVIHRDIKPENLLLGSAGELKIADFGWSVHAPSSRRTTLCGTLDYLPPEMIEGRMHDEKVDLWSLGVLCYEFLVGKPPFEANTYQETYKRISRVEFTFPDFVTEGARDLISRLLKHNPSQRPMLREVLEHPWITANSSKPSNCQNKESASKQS

[2] = biological target: Cyclin-dependent kinase 2/cyclin A (Homo sapiens, UniProt P24941); assay: Inhibition of CDK2/Cyclin A assessed as [33P]-gamma-ATP incorporation into substrate by gamma counting; format: protein-complex assay
[3] = Solubility of the compound at pH 7; format: physicochemical; details: buffer
[4] = biological target: Serine/threonine-protein kinase PLK1 (Homo sapiens, UniProt P53350); assay: Inhibition of PLK1 assessed as [33P]-gamma-ATP incorporation into substrate by gamma counting
Chain of Serine/threonine-protein kinase PLK1 (P53350 whole entry): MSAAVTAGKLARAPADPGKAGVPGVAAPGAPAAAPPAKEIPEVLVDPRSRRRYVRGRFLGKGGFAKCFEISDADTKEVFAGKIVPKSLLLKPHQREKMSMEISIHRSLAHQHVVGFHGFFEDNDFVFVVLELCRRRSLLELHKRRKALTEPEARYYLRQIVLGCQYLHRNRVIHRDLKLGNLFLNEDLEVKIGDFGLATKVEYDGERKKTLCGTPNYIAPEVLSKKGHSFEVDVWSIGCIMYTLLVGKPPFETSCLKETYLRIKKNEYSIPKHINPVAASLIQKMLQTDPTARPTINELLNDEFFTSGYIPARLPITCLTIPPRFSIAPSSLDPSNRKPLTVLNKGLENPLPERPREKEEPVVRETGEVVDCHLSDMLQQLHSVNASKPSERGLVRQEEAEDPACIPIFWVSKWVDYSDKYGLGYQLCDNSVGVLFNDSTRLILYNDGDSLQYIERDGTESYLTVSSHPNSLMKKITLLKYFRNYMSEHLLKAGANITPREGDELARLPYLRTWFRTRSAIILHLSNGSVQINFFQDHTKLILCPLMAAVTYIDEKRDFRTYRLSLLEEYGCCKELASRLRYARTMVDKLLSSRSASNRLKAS

A2780 = assay: Antiproliferative activity in human A2780 cells after 72 hrs by CellTiter-Glo assay; format: functional, cell-based; details: A2780, 72 h
U2OS = assay: Inhibition of mitosis in human U2OS cells assessed as histone H3 phosphorylation at Ser 10 residue after 2 hrs by immunoassay; format: functional, cell-based
Mus musculus [5] = assay: Antitumor activity against human A2780 cells xenografted in mouse assessed as tumor growth inhibition at 90 mg/kg, po for seven consecutive days; format: functional; details: read-out: GI
Mus musculus [6] = assay: Toxicity in mouse assessed as body weight loss at 90 mg/kg, po for seven consecutive days; format: organism-based; set-up: dose 90 mg/kg, route oral; details: in vivo

Row | Compound | pIC50 [1] | pIC50 (Aurora kinase A) | pIC50 [2] | solubility [3] | pIC50 [4] | pIC50 (A2780) | pIC50 (U2OS) | inhibition in vivo at 90 mg/kg (Mus musculus [5]) | Activity (Mus musculus [6])
1 | CNC(=O)c1nn(C)c2c1CCc1cnc(Nc3ccccc3)nc1-2 | 5.66 |  |  |  |  |  |  |  | 
2 | Cn1nc(C(N)=O)c2c1-c1nc(Nc3ccccc3OC(F)(F)F)ncc1CC2 | 5.91 | < 5.00 | < 5.00 |  |  |  |  |  | 
3 | CCc1cccc(CC)c1NC(=O)c1nn(C)c2c1CCc1cnc(Nc3ccc(C(=O)NCCN(C)C)cc3OC)nc1-2 | 7.48 | 6.12 | < 5.00 | 44 µM (≈ 26.3 µg/mL) | 5.78 | 7.00 | 7.92 |  | 
4 | CCc1cccc(CC)c1NC(=O)c1nn(C)c2c1CCc1cnc(Nc3ccc(C(=O)N4CCC(N(C)C)CC4)cc3OC(F)(F)F)nc1-2 | 6.69 | < 5.00 | < 5.00 | 70 µM (≈ 48.4 µg/mL) | < 5.00 | 6.31 | 7.40 |  | 
5 | CCc1cccc(CC)c1NC(=O)c1nn(C)c2c1CCc1cnc(Nc3ccc(C(N)=O)cc3OC)nc1-2 | 7.44 | 6.11 | 5.25 | < 1 µM | 5.52 | 6.87 | 8.40 |  | 
6 | COc1ccccc1Nc1ncc2c(n1)-c1c(c(C(N)=O)nn1C)CC2 | 7.18 |  |  |  |  |  |  |  | 
7 | CCc1cccc(CC)c1NC(=O)c1nn(C)c2c1CCc1cnc(Nc3ccc(C(=O)NC4CCN(C)CC4)cc3OC(F)(F)F)nc1-2 |  |  |  | 45 µM (≈ 30.5 µg/mL) | < 5.00 | 6.00 | 7.49 | 53% | Non-toxic
8 | CCc1cccc(CC)c1NC(=O)c1nn(C)c2c1CCc1cnc(Nc3ccc(C(=O)NC4CCN(C)CC4)cc3OC)nc1-2 | 7.08 | 5.84 | < 5.00 | 3 µM (≈ 1.87 µg/mL) | 6.63 | 6.82 | 7.80 |  | 
9 | Cn1nc(C(=O)NCc2ccccc2)c2c1-c1nc(Nc3ccccc3)ncc1CC2 | < 4.96 |  |  |  | < 5.00 |  |  |  | 
10 | CCc1cccc(CC)c1NC(=O)c1nn(C)c2c1CCc1cnc(Nc3ccc(C(=O)N4CCC[C@H]4CN4CCCC4)cc3OC)nc1-2 | 7.14 | 6.31 | < 5.00 | 96 µM (≈ 63.6 µg/mL) | < 5.00 | 7.14 | 7.89 |  | 
11 | CCc1cccc(CC)c1NC(=O)c1nn(C)c2c1CCc1cnc(Nc3ccc(C(N)=O)cc3OC(F)(F)F)nc1-2 | 6.85 | < 5.00 | < 5.00 | 1 µM (≈ 0.58 µg/mL) | < 5.00 | 6.53 | 6.80 |  | 
12 | CCc1cccc(CC)c1NC(=O)c1nn(C)c2c1CCc1cnc(Nc3ccc(C(=O)N4CCC(N(C)C)CC4)cc3OC)nc1-2 | 7.72 | 6.32 | < 5.00 | 116 µM (≈ 73.9 µg/mL) | < 5.00 | 7.08 | 8.70 |  | 
